Measured values as given in patent US20190345536A1, “DETECTION METHOD FOR CHROMOSOMAL ABNORMALITIES AND METHOD FOR EVALUATING INDUCIBILITY” (Sumitomo Chemical Company, Limited, priority 2016, published 2019).
Where two headings read alike, the source gives them in different places.

Assays:
[1] = tested on: human iPS cell-derived T lymphocyte; assay: Proliferation ability of human iPS cell-derived T lymphocyte by various proliferation stimulation factors (ATP amount, CellTiter-Glo; Comparative Example 1); type: cell-based
[2] = tested on: human iPS cell-derived T lymphocyte; assay: In vitro chromosomal aberration test using human iPS cell-derived T lymphocyte (Example 5); type: cell-based
Protocol: As human iPS cell-derived T lymphocyte, redifferentiated T lymphocyte derived from human iPS cell line “2” described in Example 1(1) was used. […] A test substance was used at the treatment dose (final concentration in medium) described in Table 7. For the treatment, a test substance was dissolved in PBS at a 100-fold concentration of the final concentration in the medium for addition at 1% (v/v). Treatment with a test substance was performed according to the process described in (4). […] After about 14 hr of culture, the total amount of the cell suspension was recovered by pipetting. The cell suspension was diluted with Rh-5 medium to a cell density of 2.0×10^5 cells/mL and reseeded in a 12 well plate not coated with the antibody at 2 mL per well, and culture was continued. Treatments with MMC, EMS and MAN were performed according to the method described below. That is, after about 24 hr from the reseeding in (3), a solution (20 μL) obtained by dissolving a test substance in PBS at a 100-fold concentration of the final concentration described in Table 5 was further added and the cells were treated for 27 hr. Different from a test substance treatment group, PBS (20 μL) was added and a similar treatment was performed for 27 hr to prepare a negative control group. About 2 hr before completion of the treatment, KaryoMAX (registered trade mark) Colcemid™ Solution in HBSS (Life technologies) (20 μL) was added to the well (final concentration in medium: 0.1 μg/mL) to discontinue the cell cycle, and cells in mitotic metaphase were enriched. At the time of start of the test substance treatment, a part of the cell suspension of the negative control group was separated and the number of the cells was measured using a counting chamber. […] All remaining cell suspension was collected in a centrifuge tube and PBS was added to a total volume of 5 mL, after which the mixture was centrifuged (1000 rpm, 5 min). The supernatant was removed, 75 mM KCl heated to 37° C. was added and a hypotonic treatment was performed for 5 min. To the cell suspension after the hypotonicity was added 1/5 volume of a fixation solution (methanol:glacial acetic acid=3:1), and the cells were semi-fixed and centrifuged (4° C., 1000 rpm, 3 min). After centrifugation, the supernatant was substituted with a fresh fixation solution, and the cells were fixed and centrifuged (4° C., 1000 rpm, 3 min). The operation was repeated 3 times, and the cells were sufficiently fixed and centrifuged again (4° C., 1000 rpm, 3 min). The cells were suspended in a small amount of a fixation solution. […] Chromosomal abnormalities were classified into chromatid break, chromosome break, chromatid exchange, chromosome exchange, and other structural abnormalities and counted. […]

[3] = tested on: human iPS cell-derived T lymphocyte; assay: In vitro comet assay using human iPS cell-derived T lymphocyte (Example 6); type: cell-based
Protocol: As human iPS cell-derived T lymphocyte, redifferentiated T lymphocyte derived from human iPS cell line “2” described in Example 1(1) was used. […] A test substance was used at the treatment dose (final concentration in medium) described in Table 9. For the treatment, a test substance was dissolved in PBS at a 100-fold concentration of the final concentration in the medium for addition at 1% (v/v). A test substance was treated according to the process described in (4). […] Each well was washed twice with 1 mL of PBS, redifferentiated T lymphocytes derived from human iPS cell line described in (1) were suspended in Rh-medium at a cell density of 2.0×10^6 cells/mL and added to each well. After about 13 hr of culture, the total amount of the cell suspension was recovered by pipetting. The cell suspension was diluted with Rh-5 medium to a cell density of 2.0×10^5 cells/mL and reseeded in a 24 well plate not coated with the antibody at 1 mL per well, and culture was continued. Treatments with EMS and MAN were performed according to the method described below. That is, after about 24 hr from the reseeding in (3), a solution (10 μL) obtained by dissolving a test substance in PBS at a 100-fold concentration of the final concentration described in Table 9 was further added and the cells were treated for 4 hr. […] On completion of the additional culture, a part of the cell suspension was separated and the number of the cells was measured using a counting chamber. […] The prepared specimen was stained for nucleic acid using SYBR (registered trade mark) Gold, and observed under a fluorescence microscope at 200-fold magnification. 75 nuclei per specimen and 150 nuclei in two specimens per condition were imaged, % tail DNA was calculated using an image analyzer Comet Assay IV, and DNA damaging activity was determined. The % tail DNA was calculated as a percentage of the fluorescence brightness of the tail to the fluorescence brightness of the whole cell nucleus. […]

[4] = tested on: human iPS cell-derived T lymphocyte
[5] = from known documents (Kirkland 2016; Lasne 1984; Aardema 2006); cited from earlier work
[6] = from known documents (Kirkland 2016; Lasne 1984); cited from earlier work
[7] = from known documents (Kirkland 2016; Lasne 1984); cited from earlier work; remark: listed apart in the source
[8] = tested on: human iPS cell-derived T lymphocyte; assay: Division kinetics of human iPS cell-derived T lymphocyte stimulated with PHA (CytoB, CBPI; Comparative Example 2); type: cell-based; conditions: CytoB 24 hr
[9] = tested on: human peripheral blood-derived mononuclear cells PBMC (feeder cell, 35Gy X-ray); assay: Division kinetics of feeder cells alone under PHA stimulation (comparison control, Comparative Example 2); type: cell-based; conditions: feeder cell only, 5 μg/mL PHA, CytoB 24 hr
[10] = proliferation stimulation for 66 hr
[11] = iPS cell line 2, 27 hr treatment, doses of Table 7, 300 metaphase cells, Fisher's exact test
[12] = absence of feeder cells, 3 μg/mL PHA, 426 cells observed
[13] = coculture with feeder cells, 5 μg/mL PHA, 500 cells observed

For Concanavalin A [Con A], the “luminescent signal (count)” value ([1]; 5 μg/mL Con A, 66 hr, background subtracted) was 10064 count, the proliferation rate ([1]; 5 μg/mL Con A, 66 hr, percentage of signal at seeding) was 7.8% and the “proliferation of human iPS cell-derived T lymphocyte by proliferation stimulation” value (shortened to “proliferation … by proliferation stimulation”) [1, 10] was “does not proliferate”.

With `CCOS(C)(=O)=O` [EMS, ethyl methanesulfonate] the “judgment result obtained in this Example (in vitro chromosomal aberration test)” value [2] was “positive”, the “judgment result obtained in this Example (in vitro comet assay)” value [3] was “positive” and the “judgment result obtained in this Example (in vitro micronucleus test)” value [4] was “positive”.

In the case of `OC[C@@H](O)[C@@H](O)[C@H](O)[C@H](O)CO` [MAN, D(−)-mannitol], the “increase in frequency of chromosomal aberration” value ([2]; all doses (FIG. 12)) is reported as “no statistically significant increase”, the “judgment result obtained in this Example (in vitro chromosomal aberration test)” value [2, 11] is reported as “negative” and the “increase in % tail DNA” value ([3]; all doses (FIG. 14)) is reported as “no statistically significant increase”. The “judgment result obtained in this Example (in vitro comet assay)” value ([3]; iPS cell line 2, 4 hr treatment, doses of Table 9, % tail DNA, Dunnett's test) was “negative”, the “increase in frequency of micronucleus” value [4] was “no statistically significant increase” and the “judgment result obtained in this Example (in vitro micronucleus test)” value [4] was “negative”. For the same compound, the “judgment result expected from known information (in vitro micronucleus test)” value [5] was “negative”, the “judgment result expected from known information (in vitro chromosomal aberration test)” value [6] was “negative” and the “judgment result expected from known information (in vitro comet assay)” value [7] was “negative”.

With `O=P1(N(CCCl)CCCl)NCCCO1` (centres unmarked) [CPA, cyclophosphamide monohydrate] the “judgment result obtained in this Example (in vitro micronucleus test)” value [4] was “positive”.

In the case of `C[C@H](CCC(=O)O)C[C@H](C)C[C@H](C)C(=O)/C=C(\O)[C@H](C)C[C@H](C)C/C=C/[C@@H](C)[C@@H](O)[C@@H](C)[C@@H](O)C[C@@H]1CC[C@@](C)([C@H]2CC[C@@](C)([C@@H](C)O)O2)O1` [Ionomycin], the “proliferation … by proliferation stimulation” value [1] is reported as “does not proliferate”.

In the case of `CO[C@@]12[C@H](COC(N)=O)C3=C(C(=O)C(C)=C(N)C3=O)N1C[C@@H]1N[C@@H]12` [MMC, mitomycin C], the “judgment result obtained in this Example (in vitro chromosomal aberration test)” value [2, 11] is listed as “positive”, the “judgment result obtained in this Example (in vitro micronucleus test)” value [4] is listed as “positive” and the “judgment result expected from known information (in vitro chromosomal aberration test)” value [6] is listed as “positive”.

For phytohemagglutinin [PHA], the “luminescent signal (count)” value ([1]; 1 μg/mL PHA, 66 hr, background subtracted) was 10984 count, the proliferation rate ([1]; 1 μg/mL PHA, 66 hr, percentage of signal at seeding) was 8.5% and the “luminescent signal (count)” value ([1]; 5 μg/mL PHA, 66 hr, background subtracted) was 15024 count. The proliferation rate ([1]; 5 μg/mL PHA, 66 hr, percentage of signal at seeding) was 11.7%, the “proliferation … by proliferation stimulation” value [1, 10] was “does not proliferate” and the CBPI ([8]; absence of feeder cells, 3 μg/mL PHA) was 1.39. It also gave a binucleated cell number [8, 12] of 160, a mononucleated cell number [8, 12] of 262 and a multinucleated cell number [8, 12] of 4. For the same compound, the CBPI ([8]; coculture with feeder cells, 5 μg/mL PHA) was 1.15, the binucleated cell number [8, 13] was 71 and the mononucleated cell number [8, 13] was 426. It also gave a multinucleated cell number [8, 13] of 3, a CBPI [9] of 1.03 and a binucleated cell number ([9]; 500 cells observed) of 11. It also gave a mononucleated cell number ([9]; 500 cells observed) of 488 and a multinucleated cell number ([9]; 500 cells observed) of 1.

With `CCCCCCCCCCCCCC(=O)O[C@@H]1[C@@H](C)[C@@]2(O)[C@@H](C=C(CO)C[C@]3(O)C(=O)C(C)=C[C@@H]23)[C@@H]2C(C)(C)[C@]12OC(C)=O` [PMA, phorbol 12-myristate 13-acetate] the “luminescent signal (count)” value [1] was 5784 count, the “proliferation … by proliferation stimulation” value [1] was “does not proliferate” and the proliferation rate [1] was 4.5%.

With bleomycin sulfate [BLM] the “judgment result obtained in this Example (in vitro micronucleus test)” value [4] was “positive”.
